“Also recorded” adds a separate entry of the source.
Tests used:
HeLa cells [1] = assay: Epifluorescent imaging of DPP-5 with PalmB in HeLa cells; type: cell-based, human
Experimental: 250,000 HEK293T cells/well, 120,000 HeLa cells/well, or 100,000 HepG2 cells/well were plated in 700 μL DMEM glutamax (10% FBS+1% P/S) into 4-well chambered imaging dish (D35C4-20-1.5-N, Cellvis, Mountain View, Calif., United States of America), which were precoated with 5 μg Poly-D-lysine (30-70 KDa, Alfa Aesar, Haverhill, Mass., United States of America) for 2 h. After 20-24 h, the media was replaced by 1 μM Hoechst 33342 and DMSO/5 μM PalmB in 400 μL DMEM glutamax. After 30 min of incubation at 37° C., the cells were washed with 400 μL of Live Cell Imaging Solution and replaced by 1 μM DPP-5 with DMSO or 5 μM of PalmB in Live Cell Imaging Solution. […] For data analysis, the average fluorescence intensity per image in each experimental condition was obtained by selecting ROI in Brightfield and applying that to the corresponding DPP-5 image, average background fluorescence intensity was subtracted and data was normalized to the average fluorescence intensity of the DMSO control. […]

[2] = Water solubility of probes (stated in words); type: physicochemical
A431 cells = assay: DPP-3 in A431 cells, starvation and EGF stimulation (flow cytometry, microscopy); type: cell-based, human; conditions: A431, starved and non-starved, 1 μM inhibitor, 5 μM DPP-3
Experimental: (§1) Cells were plated on a 10 cm dish with 10 mL of DMEM/High Glucose (10% FBS, 1% P/S, L-Glutamine, Sodium pyruvate) 36-48 hours prior to the day of experiment and maintained at 37° C., 5% CO2 so as to obtain 80-90% confluency. Cells were washed with DPBS and trypsinized with 1 mL 0.05% Trypsin. 5 mL of DMEM/High Glucose (10% FBS, L-Glutamine, Sodium pyruvate) was added and cells were spun down at 1200 rpm for 3 min. Media was discarded and cells were resuspended in 5 mL of Live Cell Imaging Solution and again spun down at 1200 rpm for 3 min. The cells pellets obtained were resuspended in 3-5 mL of Live Cell Imaging Solution and divided into 500 μL aliquots. The aliquots were treated with either 0.2% DMSO carrier or 1 μM of PalmB/ML348 or 1 μM/5 μM of ML349 inhibitor. After 30 min of incubation at room temperature, 1 μL of 2.5 mM DPP-3 in DMSO was added to each aliquot for a final concentration of 5 μM, and the solutions were mixed. After 5 min incubation at room temperature, fluorescence signal in FITC channel was measured for 10000 cells (5000 for HeLa experiments) on a LSR-Fortessa 4-15 HTS (BD digital instrument, 488 nm laser with 530/30 nm filter for FITC; BD, Franklin Lakes, N.J., United States of America). For analyzing DPP2 in HEK293T cells, the aliquots were treated with either 0.2% DMSO carrier or 2 μM of PalmB, 5 or 20 μM of ML348/ML349 and then analyzed by the protocol as mentioned above. Data was analyzed by FlowJo software version 10.0.8. For comparison of A431 starved versus non-starved, parallel 10 cm dishes of A431 cells were plated in 10 mL of DMEM (high glucose, 10% FBS, 1% P/S), and grown for 36 h. The growth media was removed, and replaced by 10 mL of either DMEM (High glucose) with 10% FBS to maintain “growth” conditions, or DMEM (High glucose) without FBS respectively for “starvation” conditions, and incubated for 14 h. After trypsinization, both plates were treated with 5 mL of DMEM (high glucose) for spinning the cells down, and further processing and analysis were performed as described above by flow cytometry.
Parallel 35 mm glass bottom dishes (D35-10-1.5-N; Cellvis, Mountain View, Calif., United States of America) of A431 cells (450,000) were plated in 2 mL of DMEM glutamax (high glucose, 10% FBS, 1% P/S), and grown for 36 h. The growth media was removed, and replaced by 1.5 mL of either DMEM (High glucose) with 10% FBS to maintain “growth” conditions, or DMEM (High glucose) without FBS respectively for “starvation” conditions, and incubated for 24 h. […] For data analysis, the average fluorescence intensity per image in each experimental condition was obtained by selecting ROIs in the brightfield image. For display, the data were normalized to the average fluorescence intensity of the control conditions. […]

MDA-MB-231 cells = assay: Flow cytometry of DPP-3 in MDA-MB-231 cells; type: cell-based, human; conditions: MDA-MF-231 as printed; 1 μM inhibitor; 5 μM DPP-3, 5 min
Experimental: as §1

HeLa cells [3] = assay: Flow cytometry of DPP-3 in HeLa cells; type: cell-based, human; conditions: 1 μM inhibitor, 5 μM DPP-3, 5 min
Experimental: as §1

| SMILES | probe fluorescent signal in cells (HeLa cells [1]; 1 μM probe for 20 minutes) | water solubility [2] | effect of inhibitor on depalmitoylation signal measured by DPP-3 (A431 cells) | effect of inhibitor on depalmitoylation signal measured by DPP-3 (A431 cells; listed as M348) | effect of inhibitor on depalmitoylation signal measured by DPP-3 (MDA-MB-231 cells) | effect of inhibitor on depalmitoylation signal measured by DPP-3 (HeLa cells [3]) | turn-on response of DPP-5 blocked (HeLa cells [1]; 5 μM PalmB pretreatment, 1 μM DPP-5) |
| --- | --- | --- | --- | --- | --- | --- | --- |
| CCCCCCCCCCCCCCCC(=O)SC[C@@H](C(=O)NC)N(C)C(=O)Oc1ccc2c(c1)Oc1cc(N3CCN(C(=O)CCC(=O)O)CC3)ccc1C21OC(=O)c2ccccc21 (stereo partly shown) [DPP-5] | robust intracellular fluorescent signal | relatively higher water solubility |  |  |  |  |  |
| O=C(CN1CCN(C(=O)c2ccco2)CC1)Nc1cc(C(F)(F)F)ccc1Cl [ML348] |  |  | knocks down the depalmitoylation signal | knocked down | knocks down the depalmitoylation signal | knocks down the depalmitoylation signal |  |
| CCCCCCCCCC[C@@H]1C(=O)O[C@H]1CCc1ccc(OC)c(OC)c1 [PalmB, palmostatin B] |  |  | knocked down; also recorded: knocks down the depalmitoylation signal |  | knocks down the depalmitoylation signal | knocks down the depalmitoylation signal | more than 95% |

Reference: US10413583B2, “Synthetic substrates for enzymes that catalyze reactions of modified cysteines and related methods” (The University of Chicago, priority 2016, dated 2019)
